Measurements as given in PubChem BioAssay (NCI).
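Step 1: Grow cells in 96-well plates. Step 2: Expose to compound for 48 hours at 5 concentrations. Step 3: Interpolate endpoints linearly; if unreached, use highest concentration. GI50 = concentration required for 50% inhibition of growth. Definition used: TGI = concentration required for complete inhibition of growth.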

Experiments:
Test in all cases: growth of human tumour cells (NCI), 48 h
COLO 205 colon = test system: COLO 205 colon
HOP-62 NSCLC = test system: HOP-62 NSCLC
HT29 colon = test system: HT29 colon
MDA-MB-435 = test system: MDA-MB-435
NCI-H522 lung = test system: NCI-H522 lung
OVCAR-5 ovarian = test system: OVCAR-5 ovarian
PC-3 prostate = test system: PC-3 prostate
T-47D breast = test system: T-47D breast
U251 CNS = test system: U251 CNS
OVCAR-3 ovarian = test system: OVCAR-3 ovarian

## C=CC1CC12C(=O)C1OC2(C)C2C(=O)c3c(ccc4c3ccc3ccccc34)C(=O)C12 (stereo not drawn)
COLO 205 colon
  GI50: 51 µM
  TGI: > 100 µM
HOP-62 NSCLC
  GI50: > 100 µM
  TGI: > 100 µM
HT29 colon
  GI50: 91.6 µM
  TGI: > 100 µM
MDA-MB-435
  GI50: 41.4 µM
  TGI: > 100 µM
NCI-H522 lung
  GI50: > 100 µM
  TGI: > 100 µM
OVCAR-5 ovarian
  GI50: > 100 µM
  TGI: > 100 µM
PC-3 prostate
  GI50: 35.6 µM
  TGI: > 100 µM
T-47D breast
  GI50: 19.7 µM
  TGI: > 100 µM
U251 CNS
  GI50: 26.7 µM
  TGI: 87.6 µM

## N=C(N)SCCc1cn2ccccc2n1
COLO 205 colon
  TGI: > 100 µM
HOP-62 NSCLC
  TGI: > 100 µM
HT29 colon
  TGI: > 100 µM
NCI-H522 lung
  TGI: > 100 µM
OVCAR-3 ovarian
  TGI: > 100 µM
OVCAR-5 ovarian
  TGI: > 100 µM
U251 CNS
  TGI: > 100 µM

## O=C1c2ccccc2C(=O)N1c1ccc(S(=O)(=O)Nc2ncccn2)cc1
COLO 205 colon
  GI50: > 100 µM
  TGI: > 100 µM
HOP-62 NSCLC
  GI50: > 100 µM
  TGI: > 100 µM
HT29 colon
  GI50: > 100 µM
  TGI: > 100 µM
MDA-MB-435
  GI50: > 100 µM
  TGI: > 100 µM
NCI-H522 lung
  GI50: > 100 µM
  TGI: > 100 µM
OVCAR-3 ovarian
  GI50: > 100 µM
  TGI: > 100 µM
OVCAR-5 ovarian
  GI50: > 100 µM
  TGI: > 100 µM
PC-3 prostate
  GI50: > 100 µM
  TGI: > 100 µM
U251 CNS
  GI50: > 100 µM
  TGI: > 100 µM

## O=C1CCCC/C1=C/C=C/c1ccccc1
COLO 205 colon
  TGI: > 100 µM
HT29 colon
  TGI: > 100 µM
NCI-H522 lung
  TGI: 61.2 µM
OVCAR-3 ovarian
  TGI: > 100 µM
OVCAR-5 ovarian
  TGI: > 100 µM
U251 CNS
  TGI: > 100 µM

## COc1ccc2c3c1C(=O)CCC3CO2 (stereo not drawn)
COLO 205 colon
  TGI: > 100 µM
HOP-62 NSCLC
  TGI: > 100 µM
HT29 colon
  TGI: > 100 µM
NCI-H522 lung
  TGI: > 100 µM
OVCAR-3 ovarian
  TGI: > 100 µM
OVCAR-5 ovarian
  TGI: > 100 µM
U251 CNS
  TGI: > 100 µM

## C=C1CC(CCCl)(c2ccccc2)OC1=O (stereo not drawn)
COLO 205 colon
  TGI: > 58 µM
HOP-62 NSCLC
  TGI: > 100 µM
HT29 colon
  TGI: > 72.1 µM
NCI-H522 lung
  TGI: 33.2 µM
OVCAR-3 ovarian
  TGI: 71.8 µM
OVCAR-5 ovarian
  TGI: > 100 µM
U251 CNS
  TGI: > 100 µM

## O=C(O)/C(=C/c1ccccc1[N+](=O)[O-])c1ccccc1
COLO 205 colon
  TGI: > 100 µM
HOP-62 NSCLC
  TGI: > 100 µM
HT29 colon
  TGI: > 100 µM
NCI-H522 lung
  TGI: > 100 µM
OVCAR-3 ovarian
  TGI: > 100 µM
OVCAR-5 ovarian
  TGI: > 100 µM
U251 CNS
  TGI: > 100 µM

## N=C(c1ccccc1)N(O)C1CCCCC1
COLO 205 colon
  TGI: > 100 µM
HOP-62 NSCLC
  TGI: > 100 µM
HT29 colon
  TGI: > 100 µM
NCI-H522 lung
  TGI: > 100 µM
OVCAR-5 ovarian
  TGI: > 100 µM
U251 CNS
  TGI: > 100 µM

## COc1cnc2c(c1)C(=O)c1c-2n(CCCn2ccnc2)c(=O)c2cc(Cl)ccc12
COLO 205 colon
  GI50: 0.0332 µM
  TGI: 2.09 µM
HOP-62 NSCLC
  GI50: 0.0211 µM
  TGI: 0.0879 µM
MDA-MB-435
  GI50: 0.145 µM
  TGI: 1.29 µM
NCI-H522 lung
  GI50: 0.0276 µM
  TGI: 10.1 µM
OVCAR-3 ovarian
  GI50: 0.129 µM
  TGI: 38.8 µM
OVCAR-5 ovarian
  GI50: 0.309 µM
  TGI: 35 µM
PC-3 prostate
  GI50: 0.0667 µM
  TGI: > 100 µM
T-47D breast
  GI50: 0.0263 µM
  TGI: 0.309 µM
U251 CNS
  GI50: 0.0144 µM
  TGI: 0.119 µM

## CN(C)CCn1c2ccccc2c2nc3cc4ccccc4cc3nc21
COLO 205 colon
  TGI: 12.3 µM
HOP-62 NSCLC
  TGI: 20.1 µM
HT29 colon
  TGI: 15 µM
NCI-H522 lung
  TGI: 21.7 µM
OVCAR-3 ovarian
  TGI: 28.2 µM
U251 CNS
  TGI: 19.5 µM

## CN1CCN(c2ccc3c4c(cccc24)C(=O)N(CCN2CCN(CCCN4CCN(CCN5C(=O)c6cccc7c(N8CCN(C)CC8)ccc(c67)C5=O)CC4)CC2)C3=O)CC1
COLO 205 colon
  GI50: 5.6 µM
  TGI: 21.8 µM
HOP-62 NSCLC
  GI50: 1.49 µM
  TGI: 6.82 µM
HT29 colon
  GI50: 1.13 µM
  TGI: 4.31 µM
MDA-MB-435
  GI50: 7.34 µM
  TGI: 15.5 µM
OVCAR-3 ovarian
  GI50: 8.2 µM
  TGI: 15.8 µM
OVCAR-5 ovarian
  GI50: 5.79 µM
  TGI: 11.9 µM
PC-3 prostate
  GI50: 5.14 µM
  TGI: 11.6 µM
T-47D breast
  GI50: 19.8 µM
  TGI: 50 µM
U251 CNS
  GI50: 7.43 µM
  TGI: 14.3 µM

## O=c1/c(=C/c2ccc(Cl)cc2Cl)sc2nc3ccccc3n12
COLO 205 colon
  TGI: > 100 µM
HOP-62 NSCLC
  TGI: > 100 µM
HT29 colon
  TGI: > 100 µM
NCI-H522 lung
  TGI: > 100 µM
OVCAR-3 ovarian
  TGI: > 100 µM
OVCAR-5 ovarian
  TGI: > 100 µM
U251 CNS
  TGI: > 100 µM

## CC(=O)N1CC2Nc3ccccc3C2CC1CO (stereo not drawn)
COLO 205 colon
  TGI: > 100 µM
HOP-62 NSCLC
  TGI: > 100 µM
HT29 colon
  TGI: > 100 µM
NCI-H522 lung
  TGI: > 100 µM
OVCAR-3 ovarian
  TGI: > 100 µM
OVCAR-5 ovarian
  TGI: > 100 µM
U251 CNS
  TGI: > 100 µM

## COc1cc2c(c(OC)c1OC)-c1[nH]ncc1CC2
COLO 205 colon
  TGI: > 100 µM
HOP-62 NSCLC
  TGI: > 100 µM
HT29 colon
  TGI: > 100 µM
OVCAR-3 ovarian
  TGI: > 100 µM
OVCAR-5 ovarian
  TGI: > 100 µM
U251 CNS
  TGI: > 100 µM

## Cn1c(CCC#N)nc2ccc(Br)cc2c1=O
COLO 205 colon
  TGI: > 100 µM
HOP-62 NSCLC
  TGI: > 100 µM
HT29 colon
  TGI: > 100 µM
NCI-H522 lung
  TGI: > 100 µM
OVCAR-5 ovarian
  TGI: > 100 µM
U251 CNS
  TGI: > 100 µM

## CC(C)C(=O)N[C@@H](C)C(=O)N(Cc1ccc2ccccc2c1)N=O
COLO 205 colon
  TGI: > 100 µM
HOP-62 NSCLC
  TGI: > 100 µM
HT29 colon
  TGI: > 100 µM
OVCAR-3 ovarian
  TGI: > 100 µM
OVCAR-5 ovarian
  TGI: > 100 µM
U251 CNS
  TGI: > 100 µM

## Nc1ccc(Nc2nc(F)nc(-c3c4ccccc4c4n3CCS4)n2)cc1
COLO 205 colon
  TGI: 41.5 µM
HOP-62 NSCLC
  TGI: 31.3 µM
NCI-H522 lung
  TGI: 28.6 µM
OVCAR-3 ovarian
  TGI: 34.7 µM
OVCAR-5 ovarian
  TGI: 32.8 µM
U251 CNS
  TGI: 31 µM

## C(=C\c1csnn1)/c1cccnc1
COLO 205 colon
  TGI: > 100 µM
HOP-62 NSCLC
  TGI: > 100 µM
HT29 colon
  TGI: > 100 µM
NCI-H522 lung
  TGI: > 100 µM
OVCAR-3 ovarian
  TGI: > 100 µM
OVCAR-5 ovarian
  TGI: > 100 µM
U251 CNS
  TGI: > 100 µM

## CC1=CC(C)(C)N=C2SC(c3ccc(Cl)cc3)=NN12
COLO 205 colon
  TGI: > 100 µM
HOP-62 NSCLC
  TGI: > 100 µM
HT29 colon
  TGI: 38.7 µM
NCI-H522 lung
  TGI: 46.4 µM
OVCAR-3 ovarian
  TGI: 92.1 µM
OVCAR-5 ovarian
  TGI: 53.7 µM
U251 CNS
  TGI: 90.9 µM

## O=c1cc(Cl)nc[nH]1
COLO 205 colon
  TGI: > 100 µM
HOP-62 NSCLC
  TGI: > 100 µM
HT29 colon
  TGI: > 100 µM
NCI-H522 lung
  TGI: > 100 µM
OVCAR-3 ovarian
  TGI: > 100 µM
OVCAR-5 ovarian
  TGI: > 100 µM
U251 CNS
  TGI: > 100 µM

## CCOC(=O)/N=C(\N)SCc1ccccc1
HOP-62 NSCLC
  TGI: > 100 µM
HT29 colon
  TGI: > 100 µM
NCI-H522 lung
  TGI: > 100 µM
OVCAR-5 ovarian
  TGI: > 100 µM
U251 CNS
  TGI: > 100 µM

## COc1cc(-c2[nH]ccc2Cl)oc1C1=C2N=C3C=C2C(C(C)C)C1CCCCCCCC3 (stereo not drawn)
COLO 205 colon
  TGI: 1.87 µM
HOP-62 NSCLC
  TGI: 2.07 µM
HT29 colon
  TGI: 1.11 µM
MDA-MB-435
  TGI: 1.4 µM
NCI-H522 lung
  TGI: 1.58 µM
OVCAR-3 ovarian
  TGI: 2.05 µM
OVCAR-5 ovarian
  TGI: 2.05 µM
PC-3 prostate
  TGI: 1.37 µM
U251 CNS
  TGI: 1.89 µM

## O=C(CCC(=O)Nc1ccc(Cl)cc1)CC(=O)c1ccc(F)cc1
COLO 205 colon
  TGI: > 100 µM
HOP-62 NSCLC
  TGI: > 100 µM
HT29 colon
  TGI: > 100 µM
NCI-H522 lung
  TGI: > 100 µM
OVCAR-3 ovarian
  TGI: > 100 µM
OVCAR-5 ovarian
  TGI: > 100 µM

## O=C(Nc1c(-c2nc3ccccc3[nH]2)sc(=S)n1-c1ccccc1)c1ccccc1
COLO 205 colon
  TGI: > 100 µM
HOP-62 NSCLC
  TGI: > 100 µM
HT29 colon
  TGI: > 100 µM
NCI-H522 lung
  TGI: > 100 µM
OVCAR-3 ovarian
  TGI: > 100 µM
OVCAR-5 ovarian
  TGI: > 100 µM
U251 CNS
  TGI: > 100 µM

## O=Cc1ccc(-c2ccc(-c3ccc(C=O)s3)o2)s1
COLO 205 colon
  TGI: 37 µM
HOP-62 NSCLC
  TGI: > 100 µM
HT29 colon
  TGI: > 100 µM
MDA-MB-435
  TGI: > 100 µM
NCI-H522 lung
  TGI: 29.5 µM
OVCAR-3 ovarian
  TGI: 5.89 µM
OVCAR-5 ovarian
  TGI: 11 µM
PC-3 prostate
  TGI: > 100 µM
U251 CNS
  TGI: > 50.8 µM
